{"source": "patent US20240350489A1", "about": "“LOU064 FOR TREATING MULTIPLE SCLEROSIS” (NOVARTIS AG, priority 2021, published 2024)", "key": {"[1]": {"tested_on": "MOG-specific immunoglobulin responses", "experiment": "MOG-specific autoantibodies in serum, RatMOG EAE", "type": "in vivo, mouse", "details": "30 mg/kg b.i.d., day 21, vs vehicle", "excerpt": "In immunized mice, treated with either vehicle or LOU064, the MOG-specific autoantibody levels, total IgM and IgG subclasses were markedly higher as compared to naive mice. LOU064 treatment had no effect on the MOG-specific IgM and IgG responses in serum compared to vehicle treated mice."}, "[2]": {"experiment": "Passive permeability, canine P-gp knockout MDCK cell monolayers (MDCK-LE V2)", "type": "in vitro ADME", "details": "dog, MDCK; 10 μM apical, two hours incubation", "method": "(§1) Passive permeability measurement using canine P-gp knockout MDCK cell monolayers (MDCK-LE V2)\n(§2) A cell-based assay was used to assess the passive permeability of drug candidates in the context of gastro-intestinal absorption. A MDCK cell line where the endogenous canine Mdr1 (cMdr1) gene encoding P-gp has been knocked out is grown to form monolayers on a 96-well Transwell plate. Compounds are loaded in cassettes of three at a concentration of 10 μM each to the apical compartment and following a period of two hours incubation the amount of compound appearing in the basal chamber is quantitated by tandem mass spectrometry.\n(§3) In particular, a MDCK cell line was generated by knocking-out the endogenous canine Mdr1 (cMdr1) gene. A subclone of this cell line was used to relate passive permeability to the fraction absorbed in human intestine using a set of 37 commercial compounds for which the fraction absorbed was known. The assay is able to estimate the fraction absorbed in human based on the Papp measured in the assay.\n(§4) Samples were subject to RapidFire/MS/MS analysis and LC/MS/MS analysis. […]"}, "[3]": {"tested_on": "canine P-gp knockout MDCK cell monolayers (MDCK-LE V2)", "experiment": "Passive permeability, canine P-gp knockout MDCK cell monolayers (MDCK-LE V2)", "type": "in vitro ADME", "details": "MDCK trans-well assay", "method": "as §1, §2, §3, §4"}}, "note": "Entries after “also recorded” stand apart in the source; their conditions may differ."}
{"smiles": "C=CC(=O)N(C)CCOc1c(N)ncnc1-c1cc(F)cc(NC(=O)c2ccc(C3CC3)cc2F)c1C", "note": "[LOU064, N-(3-(6-amino-5-(2-(N-methylacrylamido)ethoxy)pyrimidin-4-yl)-5-fluoro-2-methylphenyl)-4-cyclopropyl-2-fluorobenzamide]", "values": [{"measurement": "MOG-specific IgM and IgG responses in serum", "setting": "[1]", "result": "had no effect; also recorded: did not affect"}, {"measurement": "Papp A→B at 2 h, 10 μM", "setting": "[2]", "result": 37.3, "unit": "×10⁻⁶ cm/s"}, {"measurement": "recovery", "setting": "[3]", "result": "high recovery"}]}
